# What was measured:
# Assay type in all cases: in vivo
# [1] = system: M. incognita (Root Knot Nematode) larvae; test: Evaluation of test compounds against M. incognita larvae in microtiter plate wells (movement score); details: larvae scored for movement after 20-24 hours; note: key: A score of '9' indicates inactive worms with a straight, sticklike morphology; A score of '8' indicates inactive worms with a limp, curled or curved morphology; A score of '7' indicates dead/paralyzed worms after 72 hours
# Outline: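 Scoring is by larval movement: dead or paralyzed worms count as positive, and a "7" means dead/paralyzed at 72 hours. Freshly hatched root-knot larvae (50-65 per well) in buffered S Medium were incubated with compounds under plate sealers for 20-24 h before the first read.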
# [2] = system: Spodoptera eridania, 2nd instar larvae, southern armyworm (SAW); test: Southern armyworm (SAW) leaf dip test; design: key: 0 = no effect; 1 = 10-25% kill; 2 = 26-35% kill; 3 = 36-45% kill; 4 = 46-55% kill; 5 = 56-65% kill; 6 = 66-75% kill; 7 = 76-85% kill; 8 = 86-99% kill; 9 = 100% kill
# Outline: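 Ten 2nd instar caterpillars feed on a Sieva lima bean leaf that was dipped 3 seconds in test solution (stock 10,000 ppm in 35% acetone/water, water-diluted). Five days later, larvae are assessed for death, feeding reduction or abnormal molting.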
# [3] = system: Diabrotica virgifera virgifera Leconte, 2nd instar western corn rootworm (WCR); test: Western corn rootworm (WCR) soil test; design: key: 0 = no effect; 1 = 10-25% kill; 2 = 26-35% kill; 3 = 36-45% kill; 4 = 46-55% kill; 5 = 56-65% kill; 6 = 66-75% kill; 7 = 76-85% kill; 8 = 86-99% kill; 9 = 100% kill
# Outline: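 Ten 2nd-instar rootworm larvae are placed in jars of moist soil with millet seed and talc treated with 1.25 mg active ingredient (roughly 50 kg/ha) from a 35% acetone-in-water solution. After 5 days mortality is scored, counting missing larvae as dead.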
# [4] = system: Tetranychus urticae (OP-resistant strain), 2-spotted spider mite (TSM); test: 2-spotted spider mite (TSM) plant dip test; design: key: 0 = no effect; 1 = 10-25% kill; 2 = 26-35% kill; 3 = 36-45% kill; 4 = 46-55% kill; 5 = 56-65% kill; 6 = 66-75% kill; 7 = 76-85% kill; 8 = 86-99% kill; 9 = 100% kill; details: mortality after 2 days
# Outline: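 Mortality counted 2 days after a 3 s agitated dip of infested Sieva lima bean plants. Compound came from a 10,000 ppm stock in 35% aqueous acetone, with further dilution in water. Each primary leaf carried about 100 OP-resistant mites, allowed to settle ~2 h before dipping.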
# [5] = system: Aphis gossypii, cotton aphid (CA); test: Cotton aphid (CA) cotyledon dip test; design: key: 0 = no effect; 1 = 10-25% kill; 2 = 26-35% kill; 3 = 36-45% kill; 4 = 46-55% kill; 5 = 56-65% kill; 6 = 66-75% kill; 7 = 76-85% kill; 8 = 86-99% kill; 9 = 100% kill; details: mortality after 5 days
# Outline: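 Mortality was scored 5 days after dipping aphid-infested cotyledons, colonised overnight from a transfer leaf, into water dilutions of a 35% acetone/water compound solution.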
# [6] = system: Spodoptera eridania, eggs-southern armyworm (SAW-Eggs); test: Southern armyworm eggs (SAW-Eggs) treated diet test; design: key: 0 = no effect; 1 = 10-25% kill; 2 = 26-35% kill; 3 = 36-45% kill; 4 = 46-55% kill; 5 = 56-65% kill; 6 = 66-75% kill; 7 = 76-85% kill; 8 = 86-99% kill; 9 = 100% kill; details: mortality after 7 days
# Procedure: (§1) Test solutions are prepared by dissolving the test compound in a 35% acetone in water mixture to give a concentration of 10,000 ppm. Subsequent dilutions are made with water as needed. Spodoptera eridania, Eggs-southern Armyworm and Diabrotica undecimpunctata howardi, Eggs-southern Corn Rootworm (SAW-Eggs) and (SCR-Eggs) Wells containing artificial diet are treated with the test solutions and dried. The appropriate insect eggs are then placed in the wells. The wells are covered with vented, adhesive, clear plastic covers. After 7 days, mortality counts are made. [table]
# [7] = system: Diabrotica undecimpunctata howardi, eggs-southern corn rootworm (SCR-Eggs); test: Southern corn rootworm eggs (SCR-Eggs) treated diet test; design: key: 0 = no effect; 1 = 10-25% kill; 2 = 26-35% kill; 3 = 36-45% kill; 4 = 46-55% kill; 5 = 56-65% kill; 6 = 66-75% kill; 7 = 76-85% kill; 8 = 86-99% kill; 9 = 100% kill; details: mortality after 7 days
# Procedure: as §1
# [8] = system: C. elegans (Bristol strain); test: Evaluation of test compounds against C. elegans (motility, 96-well plate); design: key: 9=complete kill in 4 hours; 8=complete kill in 24 hours; 7=markedly reduced motility in approximately 95% of worms in 24 hours; 0=normal motility, same as controls; details: motility at 4 and 24 hours
# Outline: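 Activity is a semi-quantitative visual score of adult and larval movement, read at 4 h and 24 h post-immersion at 20 °C after gentle tapping. Worms were suspended in Na buffer in wells where compound, dissolved in 80% acetone, had been evaporated.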
SMILES,M. incognita (150 ppm) score [1],SAW (300 ppm) rating [2],WCR (50 ppm) rating [3],TSM (300 ppm) rating [4],CA (300 ppm) rating [5],SAW Eggs (300 ppm) rating [6],SCR Eggs (1000 ppm) rating [7],Rating Against C. elegans (150 ppm) [8]
C=CCSC(C[N+](=O)[O-])c1cccs1 (stereo not drawn) [Example 187],9,0,0,0,0,0,0,–
CCCCOC(=O)CSC(C[N+](=O)[O-])c1cc(Br)cs1 (stereo not drawn) [Example 194],–,0,0,0,0,0,0,–
O=[N+]([O-])CC(SCc1ccccc1)c1cccs1 (stereo not drawn) [Example 188],9,0,3 (3 = 36-45% kill),0,0,0,0,–
CCCOC(=O)CSC(C[N+](=O)[O-])c1cccs1 (stereo not drawn) [Example 189],9,0,0,0,0,0,0,–
CCCSC(C[N+](=O)[O-])c1cccs1 (stereo not drawn) [Example 186],0,4 (4 = 46-55% kill),4 (4 = 46-55% kill),0,0,0,0,–
CCOC(=O)CSC(C[N+](=O)[O-])c1cc(Br)cs1 (stereo not drawn) [Example 192],–,0,0,0,0,0,0,–
O=[N+]([O-])CC(SCc1ccccc1)c1cc(Br)cs1 (stereo not drawn) [Example 195],–,0,0,0,0,0,0,–
COC(=O)CSC(C[N+](=O)[O-])c1cccs1 (stereo not drawn) [Example 182],9,0,0,0,0,0,0,–
O=C(O)CSC(C[N+](=O)[O-])c1cc(Br)cs1 (stereo not drawn) [Example 190],–,0,0,0,0,0,0,–
CCOC(=O)CSC(C[N+](=O)[O-])c1cccs1 (stereo not drawn) [Example 183],9,0,0,0,0,0,0,–
CCCOC(=O)CSC(C[N+](=O)[O-])c1cc(Br)cs1 (stereo not drawn) [Example 193],–,0,0,0,0,0,0,–
C=CCSC(C[N+](=O)[O-])c1ccco1 (stereo not drawn) [Example 202],0,0,9 (9 = 100% kill),0,0,9 (9 = 100% kill),0,–
O=C(CSC(C[N+](=O)[O-])c1cccs1)OCc1ccccc1 (stereo not drawn) [Example 185],9,0,0,0,0,0,0,–
COC(=O)CSC(C[N+](=O)[O-])c1cccc([N+](=O)[O-])c1 (stereo not drawn) [Example 138],0,0,0,0,0,0,0,–
CCCCOC(=O)CSC(C[N+](=O)[O-])c1cccs1 (stereo not drawn) [Example 184],9,0,0,0,0,9 (9 = 100% kill),0,–
COC(=O)CSC(C[N+](=O)[O-])c1cc(Br)cs1 (stereo not drawn) [Example 191],–,0,0,0,0,0,0,–
CCOC(=O)CSC(C[N+](=O)[O-])c1ccccc1 (stereo not drawn) [Example 6],9,0,7 (7 = 76-85% kill),0,0,0,–,8
O=[N+]([O-])CC(SCc1ccccc1)c1ccc(F)cc1 (stereo not drawn) [Example 13],0,0,0,0,7 (7 = 76-85% kill),0,–,8
